The test has as its target T1, β-secretase(BACE) (Homo sapiens, UniProt P56817).
T1 construct: purchased Panvera
Kind of test: BACE FS1% Inhibition Assay. It is filed as biochemical. Particulars: FS1 substrate; for % Inhibition (FS) 0.3 μM: 0.3 μM test compound; for % Inhibition (FS) 1 μM: 1 μM test compound; for % Inhibition (FS) 3 μM: 3 μM test compound. The gist of the method: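 Human BACE (4 μg/mL working solution) preincubated 20 min at room temperature with compound, then FS1 substrate (300 μg/mL working solution) added and incubated 1 h at room temperature. Percent inhibition calculated at each compound concentration against blank and vehicle controls.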

We go through 18 compounds from US8383637B2, “2-amino-quinazoline derivatives useful as inhibitors of β-secretase (BACE)” (Jansssen Pharmaceutica N.V., priority 2004, dated 2013).

SMILES strings stand for the structures. Bounds are passed on as bounds.

T1 sequence (P56817 46-501): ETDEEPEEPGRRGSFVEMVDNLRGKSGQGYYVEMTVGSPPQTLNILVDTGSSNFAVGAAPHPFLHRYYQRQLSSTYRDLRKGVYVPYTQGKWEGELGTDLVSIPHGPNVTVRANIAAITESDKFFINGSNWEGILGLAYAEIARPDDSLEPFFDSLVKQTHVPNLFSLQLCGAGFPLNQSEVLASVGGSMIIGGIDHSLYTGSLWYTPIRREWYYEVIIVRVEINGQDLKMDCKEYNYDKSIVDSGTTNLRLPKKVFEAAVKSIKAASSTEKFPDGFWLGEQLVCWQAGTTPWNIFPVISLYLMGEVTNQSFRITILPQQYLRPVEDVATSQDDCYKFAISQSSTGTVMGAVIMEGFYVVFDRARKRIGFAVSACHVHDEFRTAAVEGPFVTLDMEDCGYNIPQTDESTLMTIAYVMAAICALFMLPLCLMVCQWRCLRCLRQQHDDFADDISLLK

With `NC1=Nc2ccc(Oc3ccccc3)cc2CN1Cc1cccc(C(=O)N2CCCCC2)c1` [Compound 443], the “% Inhibition (FS) 0.3 μM” value is less than 30%, the “% Inhibition (FS) 1 μM” value is 39% and the “% Inhibition (FS) 3 μM” value came out at 67%.

As to `NC1=Nc2ccc(Oc3ccccc3)cc2CN1Cc1cccc(C(=O)NC2CCCCC2)c1` [Compound 451], the “% Inhibition (FS) 0.3 μM” value is less than 30%, the “% Inhibition (FS) 1 μM” value is less than 30% and the “% Inhibition (FS) 3 μM” value is less than 30%.

Take `NC1=Nc2ccc(Oc3ccccc3)cc2CN1C(CCCC(=O)N1CCCCC1)CCC(=O)N1CCCCC1` (stereo not drawn) [Compound 452]: the “% Inhibition (FS) 0.3 μM” value is less than 30%, the “% Inhibition (FS) 1 μM” value came out at 42% and the “% Inhibition (FS) 3 μM” value is listed as 78%.

With `CN(C(=O)c1ccccc1CN1Cc2cc(Oc3ccccc3)ccc2N=C1N)C1CCCCC1` [Compound 463], the “% Inhibition (FS) 0.3 μM” value is less than 30%, the “% Inhibition (FS) 1 μM” value is recorded as less than 30% and the “% Inhibition (FS) 3 μM” value is listed as less than 30%.

For `COc1cccc(OC)c1Oc1ccc2c(c1)CN(CCC(=O)NC1C3CC4CC(C3)CC1C4)C(N)=N2` (stereo not drawn) [Compound 465], the “% Inhibition (FS) 0.3 μM” value was less than 30%, the “% Inhibition (FS) 1 μM” value was less than 30% and the “% Inhibition (FS) 3 μM” value is recorded as less than 30%.

For `CC(C)c1ccccc1Oc1ccc2c(c1)CN(CCC(=O)NC1C3CC4CC(C3)CC1C4)C(N)=N2` (stereo not drawn) [Compound 466], the “% Inhibition (FS) 0.3 μM” value was less than 30%, the “% Inhibition (FS) 1 μM” value is recorded as less than 30% and the “% Inhibition (FS) 3 μM” value is given as 53%.

Take `COc1ccc(C)cc1Oc1ccc2c(c1)CN(Cc1cccc(C(=O)N(C)C3CCCCC3)c1)C(N)=N2` [Compound 467]: the “% Inhibition (FS) 0.3 μM” value is recorded as less than 30%, the “% Inhibition (FS) 1 μM” value is less than 30% and the “% Inhibition (FS) 3 μM” value was less than 30%.

Consider `COc1cccc(C)c1Oc1ccc2c(c1)CN(Cc1cccc(C(=O)N(C)C3CCCCC3)c1)C(N)=N2` [Compound 468], for which the “% Inhibition (FS) 0.3 μM” value was less than 30%, the “% Inhibition (FS) 1 μM” value is recorded as less than 30% and the “% Inhibition (FS) 3 μM” value is less than 30%.

Take `COc1ccc(-c2nc3ccccc3s2)c(Oc2ccc3c(c2)CN(Cc2cccc(C(=O)N(C)C4CCCCC4)c2)C(N)=N3)c1` [Compound 469]: the “% Inhibition (FS) 0.3 μM” value is recorded as less than 30%, the “% Inhibition (FS) 1 μM” value is on record as less than 30% and the “% Inhibition (FS) 3 μM” value is less than 30%.

With `CN(C(=O)c1cccc(CN2Cc3cc(Oc4ccccc4-c4nc5ccccc5s4)ccc3N=C2N)c1)C1CCCCC1` [Compound 470], the “% Inhibition (FS) 0.3 μM” value is less than 30%, the “% Inhibition (FS) 1 μM” value is less than 30% and the “% Inhibition (FS) 3 μM” value was 31%.

For `CN(C(=O)c1cccc(CN2Cc3cc(Oc4ccccc4-n4cccc4)ccc3N=C2N)c1)C1CCCCC1` [Compound 471], the “% Inhibition (FS) 0.3 μM” value is listed as less than 30%, the “% Inhibition (FS) 1 μM” value is on record as less than 30% and the “% Inhibition (FS) 3 μM” value is given as 38%.

`CN(C(=O)c1cccc(CN2Cc3cc(Oc4ccccc4S(C)(=O)=O)ccc3N=C2N)c1)C1CCCCC1` [Compound 472]: the “% Inhibition (FS) 0.3 μM” value is less than 30%, the “% Inhibition (FS) 1 μM” value is less than 30% and the “% Inhibition (FS) 3 μM” value is less than 30%.

As for `CN(C(=O)c1cccc(CN2Cc3cc(Oc4cccc(-c5ccc6ccccc6n5)c4)ccc3N=C2N)c1)C1CCCCC1` [Compound 473], the “% Inhibition (FS) 0.3 μM” value is on record as less than 30%, the “% Inhibition (FS) 1 μM” value is reported as less than 30% and the “% Inhibition (FS) 3 μM” value was less than 30%.

For the compound `CSc1ccccc1Oc1ccc2c(c1)CN(Cc1cccc(C(=O)N(C)C3CCCCC3)c1)C(N)=N2` [Compound 474], the “% Inhibition (FS) 0.3 μM” value was less than 30%, the “% Inhibition (FS) 1 μM” value is recorded as less than 30% and the “% Inhibition (FS) 3 μM” value was less than 30%.

In the case of `Cc1cccc(C)c1Oc1ccc2c(c1)CN(Cc1cccc(C(=O)N(C)C3CCCCC3)c1)C(N)=N2` [Compound 475], the “% Inhibition (FS) 0.3 μM” value is less than 30%, the “% Inhibition (FS) 1 μM” value is listed as less than 30% and the “% Inhibition (FS) 3 μM” value was less than 30%.

Consider `COc1cccc(OC)c1Oc1ccc2c(c1)CN(Cc1cccc(C(=O)N(C)C3CCCCC3)c1)C(N)=N2` [Compound 477], for which the “% Inhibition (FS) 0.3 μM” value is listed as less than 30%, the “% Inhibition (FS) 1 μM” value is less than 30% and the “% Inhibition (FS) 3 μM” value is given as less than 30%.

With `CC(C)Oc1ccccc1Oc1ccc2c(c1)CN(Cc1cccc(C(=O)N(C)C3CCCCC3)c1)C(N)=N2` [Compound 478], the “% Inhibition (FS) 0.3 μM” value is less than 30%, the “% Inhibition (FS) 1 μM” value was less than 30% and the “% Inhibition (FS) 3 μM” value was determined as 46%.

Turning to `CN(C)c1cccc(Oc2ccc3c(c2)CN(Cc2cccc(C(=O)N(C)C4CCCCC4)c2)C(N)=N3)c1` [Compound 479], the “% Inhibition (FS) 0.3 μM” value was less than 30%, the “% Inhibition (FS) 1 μM” value is recorded as less than 30% and the “% Inhibition (FS) 3 μM” value amounted to 81%.
